Common to all, as to assay type: biochemical
One experiment has as its target Human JAK2 (Homo sapiens (Human), UniProt O60674). The experiment can be described thus: In vitro kinase inhibition test, JAK2 (33P-ATP filter scintillation). Conditions: compound at 1 uM; read-out: JAK2 kinase-phosphorylation inhibitory level (% inhibition). How it is done:
(§1) 1. In Vitro Kinase Inhibition Test
(§2) Kinases used were human-derived JAK1, JAK2, JAK3, and TYK2 (Millipore, Germany). Each of these kinases was diluted with a suitable buffer solution as described below, and then mixed with reagents.
(§3) 3-morpholinopropane-1-sulfonic acid (MOPS) and EDTA were dissolved in distilled water at a concentration of 20 mM and 1 mM, respectively, and 100 uL of β-mercaptoethanol, 10 uL of Brij-35™, 5 mL of glycerol, and 100 mg of bovine serum albumin (BSA), each per 100 mL of the solution, were added to the solution, thereby preparing a JAK2, JAK3, and TYK2 dilution buffer solution.
(§4) Each compound was dissolved in a 100% DMSO solution at a 50 uM concentration. This solution was reacted with reagents in wells on a 96-well plate to reach a final concentration of 1 uM. Detailed experimental methods for each kinase are described below.
(§5) After reaction for about 40 minutes at room temperature, the reaction was stopped by adding 5 uL of a 3% (v/v) phosphoric acid solution.
(§6) In Tables 5 and 6, the numbers in the “Example” column, which are identification numbers of the examples, indicate the compounds synthesized in the corresponding examples, the values in the “JAK1”, “JAK2”, “JAK3”, and “TYK2” columns represent kinase-phosphorylation inhibitory levels as a percentage (%) of the compounds synthesized in the corresponding examples at a 1 uM concentration. In Tables 5 and 6, negative values substantially indicate no inhibitory effect.
(§7) The inhibitory levels (% inhibition) represent a percentage of reduction in phosphorylation activity in each test group with respect to the phosphorylation activity of a corresponding kinase in a negative control group lacking any of the compounds synthesized in the examples. % inhibition=[(Scintillation value of Test compound non-treatment group−Scintillation value of Test compound treatment group)/(Scintillation value of Test compound non-treatment group)]×100

Another experiment has as its target Human JAK1 (Homo sapiens (Human), UniProt P23458). The experiment can be described thus: In vitro kinase inhibition test, JAK1 (33P-ATP filter scintillation). The settings on record: compound at 1 uM; read-out: JAK1 kinase-phosphorylation inhibitory level (% inhibition). How it is done: as §1, §2
Tris(hydroxymethyl)aminomethane (TRIS) and ethylenediaminetetraacetic acid (EDTA) were dissolved in distilled water at a concentration of 20 mM and 0.2 mM, respectively, and 100 uL of β-mercaptoethanol, 10 uL of Brij-35™, and 5 mL of glycerol, each per 100 mL of the solution, were added to the solution, thereby preparing a JAK1 dilution buffer solution.
as §4
After reaction for about 40 minutes at room temperature, the reaction was stopped by adding 5 uL of a 3% (v/v) phosphoric acid solution. […] The methanol drying is a drying process using an azeotropic effect, wherein methanol is added into an aqueous solution for drying.
as §6, §7

The target in a further experiment is Human TYK2 (Homo sapiens (Human), UniProt P29597). The experiment can be described thus: In vitro kinase inhibition test, TYK2 (33P-ATP filter scintillation). Conditions: compound at 1 uM; read-out: TYK2 kinase-phosphorylation inhibitory level (% inhibition). The procedure:
as §1, §2, §3, §4, §5, §6, §7

The target in the next experiment is Human JAK3 (Homo sapiens (Human), UniProt P52333). The experiment can be described thus: In vitro kinase inhibition test, JAK3 (33P-ATP filter scintillation). The settings on record: compound at 1 uM; read-out: JAK3 kinase-phosphorylation inhibitory level (% inhibition). How it is done: as §1, §2, §3, §4, §5, §6, §7
Chain of Human JAK3 (P52333 whole entry): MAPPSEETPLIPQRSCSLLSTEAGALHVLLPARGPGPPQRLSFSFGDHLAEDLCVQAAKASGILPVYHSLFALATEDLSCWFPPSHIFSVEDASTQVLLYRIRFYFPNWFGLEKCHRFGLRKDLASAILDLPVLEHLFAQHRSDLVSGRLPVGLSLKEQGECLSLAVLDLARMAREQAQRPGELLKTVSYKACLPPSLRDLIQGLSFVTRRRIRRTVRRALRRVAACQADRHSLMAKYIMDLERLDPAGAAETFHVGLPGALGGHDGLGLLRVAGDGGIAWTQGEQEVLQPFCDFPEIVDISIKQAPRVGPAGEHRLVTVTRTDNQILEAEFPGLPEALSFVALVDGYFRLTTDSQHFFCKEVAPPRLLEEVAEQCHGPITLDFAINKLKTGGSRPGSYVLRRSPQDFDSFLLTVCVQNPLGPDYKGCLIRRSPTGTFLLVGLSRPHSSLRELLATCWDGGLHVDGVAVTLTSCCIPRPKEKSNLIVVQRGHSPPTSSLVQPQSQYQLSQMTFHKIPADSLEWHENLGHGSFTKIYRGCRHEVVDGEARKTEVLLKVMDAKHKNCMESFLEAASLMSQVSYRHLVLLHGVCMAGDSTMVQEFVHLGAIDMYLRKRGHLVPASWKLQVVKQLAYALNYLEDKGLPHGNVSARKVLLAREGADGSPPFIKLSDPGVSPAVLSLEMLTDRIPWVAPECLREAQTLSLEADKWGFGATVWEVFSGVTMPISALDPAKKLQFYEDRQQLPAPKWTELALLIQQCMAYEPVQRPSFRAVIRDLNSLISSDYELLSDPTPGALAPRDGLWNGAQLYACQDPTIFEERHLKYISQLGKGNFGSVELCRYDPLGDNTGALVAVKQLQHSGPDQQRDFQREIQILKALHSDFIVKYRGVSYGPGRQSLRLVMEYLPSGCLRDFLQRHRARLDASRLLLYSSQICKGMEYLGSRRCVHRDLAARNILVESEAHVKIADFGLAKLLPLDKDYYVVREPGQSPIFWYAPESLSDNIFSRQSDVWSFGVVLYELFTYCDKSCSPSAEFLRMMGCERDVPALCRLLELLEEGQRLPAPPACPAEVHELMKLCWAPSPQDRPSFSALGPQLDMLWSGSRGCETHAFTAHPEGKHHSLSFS

Chain of Human JAK2 (O60674 whole entry): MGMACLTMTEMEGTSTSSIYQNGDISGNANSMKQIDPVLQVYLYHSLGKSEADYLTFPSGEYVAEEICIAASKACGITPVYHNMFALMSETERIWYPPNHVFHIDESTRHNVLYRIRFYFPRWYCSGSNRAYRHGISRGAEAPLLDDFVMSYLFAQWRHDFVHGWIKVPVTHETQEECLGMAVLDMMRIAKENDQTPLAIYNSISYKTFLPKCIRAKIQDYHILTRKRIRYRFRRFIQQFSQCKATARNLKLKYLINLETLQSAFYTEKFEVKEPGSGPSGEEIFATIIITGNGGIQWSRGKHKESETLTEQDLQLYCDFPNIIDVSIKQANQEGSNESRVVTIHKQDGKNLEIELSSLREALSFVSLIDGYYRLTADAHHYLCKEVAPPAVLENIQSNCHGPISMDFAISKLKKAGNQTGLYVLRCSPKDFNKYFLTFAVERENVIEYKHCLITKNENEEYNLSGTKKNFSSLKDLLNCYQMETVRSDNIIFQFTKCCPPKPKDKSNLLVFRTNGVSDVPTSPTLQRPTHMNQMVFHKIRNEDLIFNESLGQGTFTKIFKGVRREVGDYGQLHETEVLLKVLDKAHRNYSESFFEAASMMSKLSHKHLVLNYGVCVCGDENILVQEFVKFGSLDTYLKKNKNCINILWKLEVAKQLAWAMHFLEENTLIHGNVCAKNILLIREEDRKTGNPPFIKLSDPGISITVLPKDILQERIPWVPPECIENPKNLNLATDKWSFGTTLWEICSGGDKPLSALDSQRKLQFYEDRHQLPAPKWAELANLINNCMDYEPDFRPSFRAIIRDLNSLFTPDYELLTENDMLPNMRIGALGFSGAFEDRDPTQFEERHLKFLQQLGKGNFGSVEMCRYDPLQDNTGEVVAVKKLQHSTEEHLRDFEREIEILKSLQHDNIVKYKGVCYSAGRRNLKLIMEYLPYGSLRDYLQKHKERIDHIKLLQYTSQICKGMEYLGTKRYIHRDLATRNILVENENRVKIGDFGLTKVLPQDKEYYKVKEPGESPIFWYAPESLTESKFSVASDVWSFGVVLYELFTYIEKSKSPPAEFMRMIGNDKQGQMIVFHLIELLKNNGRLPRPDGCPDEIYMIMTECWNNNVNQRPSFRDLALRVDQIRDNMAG
Chain of Human TYK2 (P29597 whole entry): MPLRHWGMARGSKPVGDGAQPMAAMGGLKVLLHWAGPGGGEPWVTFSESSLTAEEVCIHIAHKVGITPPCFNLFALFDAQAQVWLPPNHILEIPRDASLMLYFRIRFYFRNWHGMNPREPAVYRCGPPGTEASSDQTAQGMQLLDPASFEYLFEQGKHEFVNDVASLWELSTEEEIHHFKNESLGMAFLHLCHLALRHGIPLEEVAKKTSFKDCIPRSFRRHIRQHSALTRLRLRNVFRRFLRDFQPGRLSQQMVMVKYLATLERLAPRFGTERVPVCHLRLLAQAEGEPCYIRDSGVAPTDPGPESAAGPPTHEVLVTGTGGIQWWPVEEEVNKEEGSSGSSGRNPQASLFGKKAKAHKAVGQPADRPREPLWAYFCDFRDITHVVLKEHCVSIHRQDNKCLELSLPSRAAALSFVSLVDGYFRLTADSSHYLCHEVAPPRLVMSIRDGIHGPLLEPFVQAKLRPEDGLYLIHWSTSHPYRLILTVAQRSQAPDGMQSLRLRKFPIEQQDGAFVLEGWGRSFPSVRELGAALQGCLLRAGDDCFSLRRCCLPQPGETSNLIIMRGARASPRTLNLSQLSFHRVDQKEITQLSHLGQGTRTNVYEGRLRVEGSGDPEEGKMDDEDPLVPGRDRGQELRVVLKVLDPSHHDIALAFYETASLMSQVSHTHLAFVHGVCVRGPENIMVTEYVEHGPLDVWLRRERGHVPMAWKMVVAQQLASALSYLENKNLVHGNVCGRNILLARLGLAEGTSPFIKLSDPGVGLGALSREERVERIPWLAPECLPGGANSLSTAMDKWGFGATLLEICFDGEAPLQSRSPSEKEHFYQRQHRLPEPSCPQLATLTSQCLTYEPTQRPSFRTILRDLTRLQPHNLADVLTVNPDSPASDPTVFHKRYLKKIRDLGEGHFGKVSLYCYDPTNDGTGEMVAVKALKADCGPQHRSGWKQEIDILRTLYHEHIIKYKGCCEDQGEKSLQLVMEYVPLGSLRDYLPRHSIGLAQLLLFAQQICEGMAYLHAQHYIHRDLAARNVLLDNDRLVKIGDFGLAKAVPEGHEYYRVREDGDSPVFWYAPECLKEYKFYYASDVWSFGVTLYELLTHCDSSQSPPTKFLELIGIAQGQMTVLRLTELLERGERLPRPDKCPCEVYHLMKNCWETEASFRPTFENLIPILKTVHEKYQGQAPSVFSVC
Chain of Human JAK1 (P23458 whole entry): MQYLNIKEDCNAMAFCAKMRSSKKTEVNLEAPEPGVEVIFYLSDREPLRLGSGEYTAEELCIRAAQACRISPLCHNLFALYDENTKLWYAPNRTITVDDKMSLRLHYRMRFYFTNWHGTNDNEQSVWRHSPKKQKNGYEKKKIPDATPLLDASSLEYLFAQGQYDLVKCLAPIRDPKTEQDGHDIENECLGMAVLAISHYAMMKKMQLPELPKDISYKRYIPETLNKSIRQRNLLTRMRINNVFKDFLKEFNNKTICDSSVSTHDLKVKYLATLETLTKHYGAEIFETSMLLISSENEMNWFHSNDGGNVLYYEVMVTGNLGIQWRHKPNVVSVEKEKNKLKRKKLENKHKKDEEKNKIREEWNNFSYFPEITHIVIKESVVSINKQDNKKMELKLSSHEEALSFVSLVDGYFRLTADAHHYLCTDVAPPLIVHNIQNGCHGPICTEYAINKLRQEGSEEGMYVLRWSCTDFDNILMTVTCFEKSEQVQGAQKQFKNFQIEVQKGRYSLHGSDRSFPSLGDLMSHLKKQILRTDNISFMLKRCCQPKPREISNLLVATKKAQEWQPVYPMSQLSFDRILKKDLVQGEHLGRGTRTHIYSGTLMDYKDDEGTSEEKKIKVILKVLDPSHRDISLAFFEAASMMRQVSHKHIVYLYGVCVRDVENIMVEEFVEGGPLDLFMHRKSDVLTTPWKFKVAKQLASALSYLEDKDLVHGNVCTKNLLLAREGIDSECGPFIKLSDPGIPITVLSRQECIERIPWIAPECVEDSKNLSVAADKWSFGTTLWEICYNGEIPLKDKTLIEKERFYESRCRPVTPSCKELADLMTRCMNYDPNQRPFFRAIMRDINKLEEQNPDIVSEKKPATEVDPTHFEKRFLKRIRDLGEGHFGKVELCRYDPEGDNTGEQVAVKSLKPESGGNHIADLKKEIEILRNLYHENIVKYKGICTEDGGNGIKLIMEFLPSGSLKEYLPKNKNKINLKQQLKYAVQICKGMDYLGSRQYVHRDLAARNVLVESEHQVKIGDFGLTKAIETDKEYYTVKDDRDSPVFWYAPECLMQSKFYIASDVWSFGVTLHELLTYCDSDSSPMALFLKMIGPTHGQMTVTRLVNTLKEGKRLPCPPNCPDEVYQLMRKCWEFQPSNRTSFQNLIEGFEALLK

A word on the inhibition: it is the drop in the measured response relative to a control, in per cent. For the compound `CN(c1ncnc2[nH]ccc12)[C@H]1CN(C(=O)Nc2cc(Cl)ccc2Cl)CC12CC2` [Example 27, (R)-N-(2,5-dichlorophenyl)-7-(methyl(7H-pyrrolo[2,3-d]pyrimidin-4-yl)amino)-5-azaspiro[2.4]heptane-5-carboxamide], the inhibition at 1 µM is -1% on Human JAK2, 91% on Human JAK1, 27% at Human TYK2 and 17% at Human JAK3.
For `Cc1ccc(NC(=O)N2C[C@H](N(C)c3ncnc4[nH]ccc34)C3(CC3)C2)cc1Cl` [Example 29, (R)-N-(3-chloro-4-methylphenyl)-7-(methyl(7H-pyrrolo[2,3-d]pyrimidin-4-yl)amino)-5-azaspiro[2.4]heptane-5-carboxamide] the same measures were 19%, 92%, 43% and 39%.
For `CCS(=O)(=O)N1C[C@H](N(C)c2ncnc3[nH]ccc23)C2(CC2)C1` [Example 33, (R)-N-(5-(ethylsulfonyl)-5-azaspiro[2.4]heptan-7-yl)-N-methyl-7H-pyrrolo[2,3-d]pyrimidin-4-amine] the same measures were 84%, 98%, 88% and 70%.
For `CN(c1ncnc2[nH]ccc12)[C@H]1CN(C(=O)Nc2cccc(Cl)c2Cl)CC12CC2` [Example 28, (R)-N-(2,3-dichlorophenyl)-7-(methyl(7H-pyrrolo[2,3-d]pyrimidin-4-yl)amino)-5-azaspiro[2.4]heptane-5-carboxamide] the same measures were 23%, 91%, 39% and 40%.
For the compound `COCC(=O)N1CC(N(C)c2ncnc3[nH]ccc23)C2(CC2)C1` (stereo not drawn) [Example 53, 2-methoxy-1-(7-(methyl(7H-pyrrolo[2,3-d]pyrimidin-4-yl)amino)-5-azaspiro[2.4]heptan-5-yl)ethan-1-one], the inhibition at 1 µM was -18% at Human JAK2, 76% on Human JAK1, 7% on Human TYK2 and 3% at Human JAK3.
For `CN(c1ncnc2[nH]ccc12)C1CN(C(=O)CN=[N+]=[N-])CC12CC2` (stereo not drawn) [Example 54, 2-azido-1-(7-(methyl(7H-pyrrolo[2,3-d]pyrimidin-4-yl)amino)-5-azaspiro[2.4]heptan-5-yl)ethan-1-one] the same measures were 60%, 94%, 72% and 73%.
For `CN(c1ncnc2[nH]ccc12)[C@H]1CN(C(=O)c2ccncc2)CC12CC2` [Example 14, (R)-(7-(methyl(7H-pyrrolo[2,3-d]pyrimidin-4-yl)amino)-5-azaspiro[2.4]heptan-5-yl)(pyridin-4-yl)methanone] the same measures were -14%, 84%, 15% and 12%.
For `CN(c1ncnc2[nH]ccc12)[C@H]1CN(C(=O)CN=[N+]=[N-])CC12CC2` [Example 4, (R)-2-azido-1-(7-(methyl(7H-pyrrolo[2,3-d]pyrimidin-4-yl)amino)-5-azaspiro[2.4]heptan-5-yl)ethan-1-one] the same measures were 72%, 95%, 78% and 57%.
For `CC(C)C(=O)N1C[C@H](N(C)c2ncnc3[nH]ccc23)C2(CC2)C1` [Example 3, (R)-2-methyl-1-(7-(methyl(7H-pyrrolo[2,3-d]pyrimidin-4-yl)amino)-5-azaspiro[2.4]heptan-5-yl)propan-1-one], the inhibition at 1 µM turned out to be 25% on Human JAK2, 83% on Human JAK1, 49% at Human TYK2 and 16% at Human JAK3.
For `CN(c1ncnc2[nH]ccc12)[C@H]1CN(S(=O)(=O)c2ccc(C(F)(F)F)cc2)CC12CC2` [Example 48, (R)-N-methyl-N-(5-((4-(trifluoromethyl)phenyl)sulfonyl)-5-azaspiro[2.4]heptan-7-yl)-7H-pyrrolo[2,3-d]pyrimidin-4-amine] the same measures were 36%, 98%, 66% and 28%.
For `CN(c1ncnc2[nH]ccc12)[C@H]1CN(C(=O)Nc2ccc(Cl)cc2Cl)CC12CC2` [Example 25, (R)-N-(2,4-dichlorophenyl)-7-(methyl(7H-pyrrolo[2,3-d]pyrimidin-4-yl)amino)-5-azaspiro[2.4]heptane-5-carboxamide] the same measures were 5%, 88%, 48% and 25%.
For `CN(c1ncnc2[nH]ccc12)[C@H]1CN(S(=O)(=O)c2ccc(C#N)cc2)CC12CC2` [Example 42, (R)-4-((7-(methyl(7H-pyrrolo[2,3-d]pyrimidin-4-yl)amino)-5-azaspiro[2.4]heptan-5-yl)sulfonyl)benzonitrile] the same measures were 49%, 97%, 68% and 33%.
In the case of `Cc1cccc(S(=O)(=O)N2C[C@H](N(C)c3ncnc4[nH]ccc34)C3(CC3)C2)c1` [Example 46, (R)-N-methyl-N-(5-(m-tolylsulfonyl)-5-azaspiro[2.4]heptan-7-yl)-7H-pyrrolo[2,3-d]pyrimidin-4-amine], the inhibition at 1 µM came out at 81% on Human JAK2, 98% on Human JAK1, 92% at Human TYK2 and 62% at Human JAK3.
For `CCN1C[C@H](N(C)c2ncnc3[nH]ccc23)C2(CC2)C1` [Example 73, (R)-N-(5-ethyl-5-azaspiro[2.4]heptan-7-yl)-N-methyl-7H-pyrrolo[2,3-d]pyrimidin-4-amine] the same measures were -6%, 42%, -7% and 1%.
For `CC(=O)N1CCC(C(=O)N2C[C@H](N(C)c3ncnc4[nH]ccc34)C3(CC3)C2)CC1` [Example 10, (R)-1-(4-(7-(methyl(7H-pyrrolo[2,3-d]pyrimidin-4-yl)amino)-5-azaspiro[2.4]heptane-5-carbonyl)piperidin-1-yl)ethan-1-one] the same measures were 2%, 88%, 52% and 23%.
For `CN(c1ncnc2[nH]ccc12)[C@H]1CN(S(=O)(=O)c2cccc(F)c2)CC12CC2` [Example 38, (R)-N-(5-((3-fluorophenyl)sulfonyl)-5-azaspiro[2.4]heptan-7-yl)-N-methyl-7H-pyrrolo[2,3-d]pyrimidin-4-amine] the same measures were 97%, 100%, 97% and 84%.
As to `CN(c1ncnc2[nH]ccc12)[C@@H]1CN(C(=S)CC#N)CC12CC2` [Example 69, (S)-3-(7-(methyl(7H-pyrrolo[2,3-d]pyrimidin-4-yl)amino)-5-azaspiro[2.4]heptan-5-yl)-3-thioxopropanenitrile], the inhibition at 1 µM on Human JAK2 came out at 6%; on Human JAK1, 58%; at Human TYK2 it was 36%; at Human JAK3, 9%.
For `CN(c1ncnc2[nH]ccc12)[C@H]1CN(S(=O)(=O)c2ccccc2)CC12CC2` [Example 36, (R)-N-methyl-N-(5-(phenylsulfonyl)-5-azaspiro[2.4]heptan-7-yl)-7H-pyrrolo[2,3-d]pyrimidin-4-amine] the same measures were 90%, 97%, 91% and 52%.

The record behind these values is US10081635B2, “Substituted N-(pyrrolidine-3-yl)-7H-pyrrolo[2,3-D]pyrimidine-4-amine as janus kinase inhibitor” (YANG JI CHEMICAL CO., LTD., priority 2014, dated 2018).
